These results are taken from patent US10227668B2, “Method for preparing fructose or xylulose from biomass containing glucose or xylose using butanol, and method for separating the same” (KOREA RESEARCH INSTITUTE OF CHEMICAL TECHNOLOGY, priority 2016, dated 2019).

For series [1] the following is noted: @ 40° C.; cited from earlier work.
A further series can be described thus: Solubility in 1-butanol. In kind it is physicochemical. Particulars: per 100 g 1-butanol, 50° C. The text has this:
As a result, glucose having remarkably low solubility at the corresponding temperature can be selectively crystallized, thereby easily separating the glucose by filtration.

For series [2] the following is noted: @ 40° C.; cited from earlier work. The source holds these as a separate data set.

Values after ≈ are worked out from the molar mass of the structure shown.

Regarding `O=C(CO)[C@@H](O)[C@H](O)[C@H](O)CO` [fructose], the solubility in methanol in series [1] was 229.7 mg/mL (≈ 1280 mM). Moreover, the “solubility in 1-butanol” value in “Solubility in 1-butanol” came to 32 g. The solubility in ethanol in series [2] was 36.3 mg/mL (≈ 201 mM).
